“Also recorded” adds a separate entry of the source.
Key:
[1] = system: COLO205; assay: Sensitivity of colon cancer cell lines to AKT1/2 inhibitor (cell killing); assay type: cell-based, human; conditions: in vitro, grouping is relative
Text: (§1) FIG. 2. Cell lines used as a starting point for signature gene discovery. Nineteen colon cancer cell lines were phenotyped for sensitivity to the AKT1/2 inhibitor L-001154547.
(§2) In order to identify a gene expression signature of growth factor signaling pathway deregulation in human tumors, six colon carcinoma cell lines HCT-8 (ATCC #CCL-244), LoVo (ATCC #CCL-229), COLO205 (ATCC #CLL-222), DLD-1 (ATCC #CCL-221), HCT-116 (ATCC #CCL-247), and HCT-15 (ATCC #CCL-225) were initially expression profiled by microarray to identify genes that are responsive to AKT1/2 small molecule inhibition. The six colon cancer cell lines were treated with either 4 μM AKT1/2 inhibitor L-001154547 ('547; 3-phenyl-2-(4-{[4-(5-pyridin-2-yl-1H-1,2,4-triazol-3-yl)piperidin-1-yl]methyl}phenyl)-1,6-naphthyridin-5(6H)-one; disclosed in WO2006065601) or 4 μM AKT1/2 inhibitor L-01173931 ('931; 6-Methyl-3-phenyl-2-(4-{[4-(5-pyridin-2-yl-1H-1,2,4-triazol-3-yl)piperidin-1-yl]-methyl}phenyl)-1,6-naphthyridin-5(6H)-one; disclosed in WO2006065601) for 6 or 24 hours. Two AKT1/2 inhibitors were used for the profiling experiments as a way to offset any off-target effects of any one compound.
(§3) Discriminant analysis of responders and non-responders using post-dose changes of gene expression was 90% accurate in leave-one-out cross-validation (data not shown). Among these 1,600 genes, we focused on 399 genes that were tightly correlated (r>0.7) with changes in expression of IRS2 across this dataset, a key mediator of growth pathway signaling (FIG. 3B) (Hennessy et al., 2005, Nat. Rev. Drug Discov. 4:988-1004). Note that the sensitivity and resistance phenotypes shown in FIG. 1 are relative, not absolute.

[2] = system: DLD-1; assay: as above; assay type: cell-based, human; conditions: in vitro, grouping is relative
Text: as §1, §2, §3

[3] = system: HCT-116; assay: as above; assay type: cell-based, human; conditions: in vitro, grouping is relative
Text: as §1, §2, §3

[4] = system: LoVo; assay: as above; assay type: cell-based, human; conditions: in vitro, grouping is relative
Text: as §1, §2, §3

[5] = system: HCT-8; assay: as above; assay type: cell-based, human; conditions: in vitro, grouping is relative
Text: as §1, §2, §3

[6] = system: HCT-15; assay: as above; assay type: cell-based, human; conditions: in vitro, grouping is relative
Text: as §1, §2, §3

[7] = system: MYC signature; assay: MYC signature (Bild et al.) in response to inhibition of oncology targets; assay type: cell-based; conditions: cancer cell lines of FIG. 6C
Protocol: FIG. 6. Relationship of AKT and MYC signatures. The AKT and MYC signature scores are highly correlated in the (A) colon (r=0.81) and (B) breast (r=0.82) tumor atlas datasets. The AKT signature score was calculated as described previously. […] (C) The Bild et al. MYC signature is inhibited by small molecule inhibitors of AKT, cMET and FGFR2, but not by taxol or inhibition of KSP. […] Experiments are listed on the left side of the heatmap (HCT116: colon cancer cells, LoVo: colon cancer cells, GTL-16: gastric cancer cells, EBC-1: lung cancer cells, KATO III: gastric cancer cells, SUM52: breast cancer cells). The drug (taxol) or drug target (all others) profiled in each experiment is indicated along the right side of the heatmap.
Bild et al. published a gene expression signature that was regulated in response to cMYC (also known as MYC) overexpression in primary human mammary epithelial cells (2006, Nature, 439:353-357). This MYC signature was analyzed in the context of tumor expression atlas data. The tumor expression atlas is a collection of gene expression data measured in several different types of human tumors, including breast, colon, gastric, kidney, and lung tumors. […] Therefore, we assessed the regulation of the MYC signature in response to inhibition of AKT and other oncology targets. […]

[8] = system: EGFR; assay: mRNA expression of growth factor receptors after growth factor treatment (microarray); assay type: cell-based, human; conditions: MCF7 and HT29 cells; 100 ng/ml (heregulin 30 ng/ml)
Protocol: (§4) FIG. 29. Negative feedback induced by growth factors. The data presented represents the effect of each growth factor on the mRNA expression of (A) EGFR, (B) ERBB3, (C) INSR, or (D) a recently published signature of aberrant PTEN activity. The Y-axes represent the log(10) ratio of expression relative to vehicle. […] The X-axes represent the time point after growth factor addition.
(§5) MCF-7 and HT-29 cell lines were seeded in 6-well plates to achieve 40-50% confluence at the time of growth factor addition. Cells were serum starved for 24 hours in 0.2% charcoal stripped serum, and growth factors were added at 100 ng/ml (EGF, IGF, insulin, b-FGF) or 30 ng/ml (heregulin). Concentrations of growth factors were chosen to give maximal activation of growth factor receptors as judged by receptor auto-phosphorylation. Activation of growth factor receptor pathways after growth factor addition was confirmed by Western analysis of phosphorylated MAPK and phosphorylated AKT in a separate plate of cells (data not shown). Cells were harvested at 30 minutes, 2 hours, 6 hours, 18 hours, and 24 hours after growth factor addition. DMSO (vehicle) treated cells were also harvested at each time point. RNA was prepared using RLT lysis reagent Qiagen spin columns according to manufacturer instructions.
(§6) For growth factor and AKT inhibitor treated cells, total RNA was isolated from cell lines and converted to fluorescently labeled cRNA that was hybridized to DNA oligonucleotide microarrays as described previously (Hughes et al., 2001, Nat. Biotechnol. 19:342-347; Marton et al., 1998, Nat. Med. 4:1293-1301). Briefly, 4 μg of total RNA from each treated sample was used to synthesize dsDNA through reverse transcription. cRNA was produced by in vitro transcription and labeled post-synthetically with Cy3 or Cy5. cRNA derived from growth factor or AKT inhibitor treated cells (experimental sample) was hybridized against cRNA derived from vehicle treated samples (reference sample). Two hybridizations were done with each cRNA sample pair using fluorescent dye reversal strategy. For growth factor treated cells, microarrays contained 23,880 probes representing genes or expressed sequence tags (GEO platform GPL2029). For AKT inhibitor treated cells, microarrays contained 23,658 probes representing genes or expressed sequence tags (GEO platform GPL3991). Probe sequences were chosen to maximize gene specificity and minimize the 3′-replication bias inherent in reverse transcription of mRNA. In addition, all microarrays contained approximately 2,000 control probes for quality control purposes. All probes on the microarrays were synthesized in situ with inkjet technology (Agilent Technologies, Palo Alto, Calif.; Hughes et al, 2001, Nat. Biotechnol. 19:342-347). After hybridization, arrays were scanned and fluorescence intensities for each probe were recorded. Ratios of transcript abundance (experimental to control) were obtained following normalization and correction of the array intensity data. Gene expression data was analyzed using Rosetta Resolver gene expression analysis software (version 7.0, Rosetta Biosoftware, Seattle, Wash.) and MATLAB (The MathWorks, Natick, Mass.).
(§7) As such, care should be taken when using mRNA levels of ERBB3 or INSR as a surrogate for activity of signaling through these receptors.

[9] = system: ERBB3; assay: as above; assay type: cell-based, human; conditions: MCF7 and HT29 cells; 100 ng/ml (heregulin 30 ng/ml)
Protocol: as §4, §5, §6, §7

[10] = system: INSR; assay: as above; assay type: cell-based, human; conditions: MCF7 and HT29 cells; 100 ng/ml (heregulin 30 ng/ml)
Protocol: as §4, §5, §6, §7

[11] = system: growth factor signaling pathway signature; assay: Regulation of the growth factor signaling pathway signature by growth factors and inhibitors; assay type: cell-based; conditions: HT29 and MCF7 cells; 0.5, 2, 6, 18, or 24 hours
Text: FIG. 9. Inverse regulation of the growth factor signaling pathway signature by growth factors relative to growth factor pathway inhibitors. Genes listed in Table 5 are shown along the Y-axis, and various treatments are listed along the X-axis. The drug treatment/drug targets are listed along the left hand side, and functional groupings are listed along the right hand side. […] From the growth factor compendium, we show data from both colon (HT29) and breast (MCF7) cells treated with heregulin (a growth factor that binds to Erbb family receptors and activates PI3K/AKT signaling). Cells were treated with heregulin for 0.5, 2, 6, 18, or 24 hours.
Because we developed this novel growth factor signaling pathway signature based on regulation by inhibitors of growth factor pathway signaling, we hypothesized that our signature genes would be inversely regulated in vitro by treatments that activate growth factor signaling.

In the case of `O=c1[nH]ccc2nc(-c3ccc(CN4CCC(c5n[nH]c(-c6ccccn6)n5)CC4)cc3)c(-c3ccccc3)cc12` [L-001154547, 3-phenyl-2-(4-{[4-(5-pyridin-2-yl-1H-1,2,4-triazol-3-yl)piperidin-1-yl]methyl}phenyl)-1,6-naphthyridin-5(6H)-one], the “sensitivity to AKT inhibition” value [1] is reported as “more sensitive; also recorded: relatively sensitive”, the “sensitivity to AKT inhibition” value [2] is reported as “more resistance; also recorded: relatively resistant” and the “sensitivity to AKT inhibition” value [3] is reported as “more resistance; also recorded: relatively resistant”. The “sensitivity to AKT inhibition” value [4] was “more sensitive; also recorded: relatively sensitive”, the “sensitivity to AKT inhibition” value [5] was “more sensitive; also recorded: relatively sensitive” and the “sensitivity to AKT inhibition” value [6] was “more resistance; also recorded: relatively resistant”.
`CC(=O)O[C@H]1C(=O)[C@@]2(C)[C@H]([C@H](OC(=O)c3ccccc3)[C@]3(O)C[C@H](OC(=O)[C@H](O)[C@@H](NC(=O)c4ccccc4)c4ccccc4)C(C)=C1C3(C)C)[C@]1(OC(C)=O)CO[C@@H]1C[C@@H]2O` [taxol] was tested, and the “inhibition of the MYC signature developed by Bild et al.” value [7] was “not inhibited”.
With “EGF: growth factor added to cells at 100 ng/ml” the “EGFR mRNA expression” value [8] was “did not result in down-regulation”, the “ERBB3 mRNA expression” value [9] was “significant down-regulation” and the “INSR mRNA expression” value [10] was “significant down-regulation”.
For heregulin, the “regulation of the growth factor signaling pathway signature genes” value [11] was “inverse regulation of the signature genes”, the “ERBB3 mRNA expression” value [9] was “significant down-regulation” and the “INSR mRNA expression” value [10] was “significant down-regulation”.

From patent US8392127B2, “Methods and gene expression signature for assessing growth factor signaling pathway regulation status” (Merck Sharp & Dohme Corp., priority 2008, dated 2013)
